In PMC11942486, “The Impact of a Quinone Scaffold on Thermo-TRPs Modulation by Dimethylheptyl Phytocannabinoids” (International Journal of Molecular Sciences, 2025):
Where two headings read alike, the source gives them in different places.

What was measured:
[1] = molecular target: T1, rat TRPA1 (Rattus norvegicus, UniProt Q6RI86); set-up: method as in PMID 34440274; conditions: cited from earlier work; for TRPA1 Efficacy (% AITC 100 μM): agonist effect as % of AITC 100 μM, HEK-293 rat TRPA1
T1 construct: expressed in transfected cells

[2] = molecular target: T2, human TRPV1 (Homo sapiens, UniProt Q8NER1); set-up: method as in PMID 34440274
T2 construct: expressed in transfected cells

[3] = molecular target: T3, rat TRPV4 (Rattus norvegicus, UniProt Q9ERZ8); set-up: method as in PMID 34440274
T3 construct: expressed in transfected cells

[4] = molecular target: T4, rat TRPV2 (Rattus norvegicus, UniProt Q9WUD2); set-up: method as in PMID 34440274; conditions: cited from earlier work; for TRPV2 Efficacy (% Ionomycin 4 μM): agonist effect as % of ionomycin 4 μM
T4 construct: expressed in transfected cells
T4 sequence (Q9WUD2 1-761): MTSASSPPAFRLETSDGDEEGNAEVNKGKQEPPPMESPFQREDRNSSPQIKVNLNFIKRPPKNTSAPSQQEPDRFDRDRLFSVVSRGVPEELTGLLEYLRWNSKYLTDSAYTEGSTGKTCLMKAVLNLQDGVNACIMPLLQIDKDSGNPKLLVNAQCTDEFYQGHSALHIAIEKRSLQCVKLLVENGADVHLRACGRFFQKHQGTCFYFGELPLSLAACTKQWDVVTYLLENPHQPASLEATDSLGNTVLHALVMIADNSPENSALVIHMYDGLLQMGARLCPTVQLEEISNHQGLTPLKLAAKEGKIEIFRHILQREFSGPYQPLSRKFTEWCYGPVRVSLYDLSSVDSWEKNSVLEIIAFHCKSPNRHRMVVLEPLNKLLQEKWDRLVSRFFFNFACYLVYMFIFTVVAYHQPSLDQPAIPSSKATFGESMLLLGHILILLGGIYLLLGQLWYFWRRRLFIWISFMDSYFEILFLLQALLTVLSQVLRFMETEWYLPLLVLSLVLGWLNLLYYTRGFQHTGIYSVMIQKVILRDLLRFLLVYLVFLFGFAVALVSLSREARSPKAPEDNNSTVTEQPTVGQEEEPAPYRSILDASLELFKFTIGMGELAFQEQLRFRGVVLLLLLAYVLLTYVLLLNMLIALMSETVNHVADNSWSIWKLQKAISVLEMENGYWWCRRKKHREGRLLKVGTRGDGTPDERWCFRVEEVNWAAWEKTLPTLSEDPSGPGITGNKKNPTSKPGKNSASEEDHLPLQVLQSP

[5] = molecular target: T5, rat TRPV3 (Rattus norvegicus, UniProt Q4QYD9); set-up: method as in PMID 34440274
T5 construct: expressed in transfected cells
T5 sequence (Q4QYD9 1-791): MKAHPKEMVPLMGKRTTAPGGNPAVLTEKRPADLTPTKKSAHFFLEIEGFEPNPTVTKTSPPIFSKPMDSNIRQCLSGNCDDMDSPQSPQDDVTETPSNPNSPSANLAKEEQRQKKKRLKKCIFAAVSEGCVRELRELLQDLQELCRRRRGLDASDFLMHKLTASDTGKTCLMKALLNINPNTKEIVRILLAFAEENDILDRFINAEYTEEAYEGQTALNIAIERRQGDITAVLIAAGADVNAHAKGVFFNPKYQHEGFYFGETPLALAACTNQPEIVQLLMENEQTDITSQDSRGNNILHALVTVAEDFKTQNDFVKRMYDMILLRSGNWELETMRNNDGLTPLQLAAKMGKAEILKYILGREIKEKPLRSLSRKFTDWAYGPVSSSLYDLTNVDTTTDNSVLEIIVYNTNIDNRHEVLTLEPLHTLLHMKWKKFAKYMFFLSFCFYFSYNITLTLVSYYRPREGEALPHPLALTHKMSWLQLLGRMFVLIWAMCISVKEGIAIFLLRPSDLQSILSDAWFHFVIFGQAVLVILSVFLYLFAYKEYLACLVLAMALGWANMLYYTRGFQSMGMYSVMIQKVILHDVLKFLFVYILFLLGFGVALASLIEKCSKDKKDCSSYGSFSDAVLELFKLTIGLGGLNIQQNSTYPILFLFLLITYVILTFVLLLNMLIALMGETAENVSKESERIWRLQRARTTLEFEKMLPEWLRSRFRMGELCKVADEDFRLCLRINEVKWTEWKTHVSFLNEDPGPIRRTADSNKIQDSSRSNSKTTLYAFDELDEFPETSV

[6] = molecular target: T6, rat TRPM8 (Rattus norvegicus, UniProt Q8R455); set-up: method as in PMID 34440274; conditions: vs Icilin 0.25 μM; 22 °C; cited from earlier work
T6 construct: expressed in transfected cells

[7] = molecular target: T1, rat TRPA1; assay: Thermo-TRP assay: [Ca2+]i elevation (Fluo-4) in HEK-293 cells transfected with TRPA1; type: cell-based
Description: (§1) The compounds were tested on HEK-293 cells either stably transfected with rat TRPA1, TRPV2, TRPV3, TRPV4, TRPM8 or human TRPV1 or not-transfected, by performing a continuous monitoring of the intracellular calcium ([Ca^2+]i) elevation during the experiments, following the protocol already described. […] Cell fluorescence before and after the addition of various concentrations of tested compounds was measured, normalizing the effects against the response to ionomycin (IM, 4 μM). The effect on [Ca^2+]i in non-transfected HEK-293 cells were used as the baseline and subtracted from the values obtained from the transfected ones. The efficacy of the agonists was determined by normalizing their effect to the maximum Ca^2+ influx effect on [Ca^2+]i observed with application of 4μM ionomycin. The effects of TRPA1 agonists are expressed as a percentage of the effect obtained with 100 μM allyl isothiocyanate (AITC). In the TRPV3 assay, rat TRPV3-expressing HEK-293 cells were first sensitized with the structurally unrelated agonist 2-aminoethoxydiphenyl borate (100 μM). For the TRPM8, the experiments were carried out at 22 °C. The potency (EC50 values) is determined as the concentration required to produce half-maximal increases in [Ca^2+]i. […] A dose-response curve fitting (sigmoidal dose-response variable slope) and parameter estimation were performed with Graph-Pad Prism 8 (GraphPad Software Inc., San Diego, CA, USA). All determinations were performed at least in triplicate.

[8] = molecular target: T2, human TRPV1; assay: Thermo-TRP assay: [Ca2+]i elevation (Fluo-4) in HEK-293 cells transfected with TRPV1; type: cell-based
Description: as §1

[9] = molecular target: T3, rat TRPV4; assay: Thermo-TRP assay: [Ca2+]i elevation (Fluo-4) in HEK-293 cells transfected with TRPV4; type: cell-based
Description: as §1

[10] = molecular target: T6, rat TRPM8; assay: Thermo-TRP assay: [Ca2+]i elevation (Fluo-4) in HEK-293 cells transfected with TRPM8; type: cell-based
Description: as §1

[11] = molecular target: T4, rat TRPV2; assay: Thermo-TRP assay: [Ca2+]i elevation (Fluo-4) in HEK-293 cells transfected with TRPV2; type: cell-based
Description: (§2) The compounds were tested on HEK-293 cells either stably transfected with rat TRPA1, TRPV2, TRPV3, TRPV4, TRPM8 or human TRPV1 or not-transfected, by performing a continuous monitoring of the intracellular calcium ([Ca^2+]i) elevation during the experiments, following the protocol already described. On the day of the experiment, the cells were loaded for 1 h in the dark at room temperature with the fluorescent probe Fluo-4 AM (4 μM in DMSO containing 0.02% Pluronic F-127). The cells were rinsed, resuspended in Tyrode’s solution (145 mM NaCl, 2.5 mM KCl, 1.5 mM CaCl2, 1.2 mM MgCl2, 10 mM D-glucose, and 10 mM HEPES, pH 7.4), and transferred to a quartz cuvette of a spectrofluorimeter (PerkinElmer LS50B; λEX = 488 nm, λEM = 516 nm) equipped with a PTP-1 fluorescence Peltier system (PerkinElmer Life and Analytical Sciences, Waltham, MA, USA) under continuous stirring. Cell fluorescence before and after the addition of various concentrations of tested compounds was measured, normalizing the effects against the response to ionomycin (IM, 4 μM). The effect on [Ca^2+]i in non-transfected HEK-293 cells were used as the baseline and subtracted from the values obtained from the transfected ones. The efficacy of the agonists was determined by normalizing their effect to the maximum Ca^2+ influx effect on [Ca^2+]i observed with application of 4μM ionomycin. The effects of TRPA1 agonists are expressed as a percentage of the effect obtained with 100 μM allyl isothiocyanate (AITC). In the TRPV3 assay, rat TRPV3-expressing HEK-293 cells were first sensitized with the structurally unrelated agonist 2-aminoethoxydiphenyl borate (100 μM). For the TRPM8, the experiments were carried out at 22 °C. The potency (EC50 values) is determined as the concentration required to produce half-maximal increases in [Ca^2+]i. Antagonist/desensitizing behavior is evaluated against the agonist of the TRP analyzed by adding the compounds directly in the quartz cuvette 5 min before stimulation of cells with the agonist (allylisothiocyanate (100 μM) for TRPA1, capsaicin (0.1 μM) for TRPV1, cannabidiol (2 μM) for TRPV2, thymol (100 μM) for TRPV3, GSK1016790A (10 nM) for TRPV4, and icilin (0.25 μM) for TRPM8). The IC50 value is expressed as the concentration exerting a half-maximal inhibition of the agonist effect, taking as 100% the effect on [Ca^2+]i exerted by the agonist alone. A dose-response curve fitting (sigmoidal dose-response variable slope) and parameter estimation were performed with Graph-Pad Prism 8 (GraphPad Software Inc., San Diego, CA, USA). All determinations were performed at least in triplicate.

[12] = molecular target: T5, rat TRPV3; assay: Thermo-TRP assay: [Ca2+]i elevation (Fluo-4) in HEK-293 cells transfected with TRPV3; type: cell-based
Description: as §2

[13] = vs Capsaicin 0.1 μM; read-out: IC50 TRPV1; cited from earlier work
[14] = vs GSK1016790A 10 nM; read-out: IC50 TRPV4; cited from earlier work
[15] = agonist effect as % of ionomycin 4 μM; cited from earlier work
[16] = antagonist/desensitizing, vs Thymol 100 μM; cited from earlier work
[17] = read-out: IC50 TRPV1; vs Capsaicin 0.1 μM; cited from earlier work
[18] = read-out: IC50 TRPV4; vs GSK1016790A 10 nM; cited from earlier work

T2 sequence (Q8NER1 whole entry): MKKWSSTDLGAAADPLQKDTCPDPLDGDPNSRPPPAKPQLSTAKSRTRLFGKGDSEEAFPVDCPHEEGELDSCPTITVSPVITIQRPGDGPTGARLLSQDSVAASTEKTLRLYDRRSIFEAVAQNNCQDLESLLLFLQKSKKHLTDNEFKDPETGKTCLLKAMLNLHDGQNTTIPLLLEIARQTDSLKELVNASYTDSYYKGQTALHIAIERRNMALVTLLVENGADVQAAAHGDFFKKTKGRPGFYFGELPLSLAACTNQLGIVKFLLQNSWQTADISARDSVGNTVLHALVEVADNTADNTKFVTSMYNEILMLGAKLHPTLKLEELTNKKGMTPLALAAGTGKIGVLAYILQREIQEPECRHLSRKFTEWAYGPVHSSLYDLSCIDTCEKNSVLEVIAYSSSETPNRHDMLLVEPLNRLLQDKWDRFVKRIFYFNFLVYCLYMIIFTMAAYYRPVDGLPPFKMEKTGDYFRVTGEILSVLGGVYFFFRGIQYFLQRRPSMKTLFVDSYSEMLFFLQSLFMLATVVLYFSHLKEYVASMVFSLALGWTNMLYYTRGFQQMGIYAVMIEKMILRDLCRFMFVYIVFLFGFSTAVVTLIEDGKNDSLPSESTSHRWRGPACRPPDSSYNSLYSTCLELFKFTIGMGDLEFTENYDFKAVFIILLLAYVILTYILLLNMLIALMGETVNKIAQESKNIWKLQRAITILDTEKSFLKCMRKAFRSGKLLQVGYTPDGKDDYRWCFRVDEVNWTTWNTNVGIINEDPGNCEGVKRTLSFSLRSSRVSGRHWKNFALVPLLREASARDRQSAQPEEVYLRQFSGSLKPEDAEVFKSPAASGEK
T3 sequence (Q9ERZ8 whole entry): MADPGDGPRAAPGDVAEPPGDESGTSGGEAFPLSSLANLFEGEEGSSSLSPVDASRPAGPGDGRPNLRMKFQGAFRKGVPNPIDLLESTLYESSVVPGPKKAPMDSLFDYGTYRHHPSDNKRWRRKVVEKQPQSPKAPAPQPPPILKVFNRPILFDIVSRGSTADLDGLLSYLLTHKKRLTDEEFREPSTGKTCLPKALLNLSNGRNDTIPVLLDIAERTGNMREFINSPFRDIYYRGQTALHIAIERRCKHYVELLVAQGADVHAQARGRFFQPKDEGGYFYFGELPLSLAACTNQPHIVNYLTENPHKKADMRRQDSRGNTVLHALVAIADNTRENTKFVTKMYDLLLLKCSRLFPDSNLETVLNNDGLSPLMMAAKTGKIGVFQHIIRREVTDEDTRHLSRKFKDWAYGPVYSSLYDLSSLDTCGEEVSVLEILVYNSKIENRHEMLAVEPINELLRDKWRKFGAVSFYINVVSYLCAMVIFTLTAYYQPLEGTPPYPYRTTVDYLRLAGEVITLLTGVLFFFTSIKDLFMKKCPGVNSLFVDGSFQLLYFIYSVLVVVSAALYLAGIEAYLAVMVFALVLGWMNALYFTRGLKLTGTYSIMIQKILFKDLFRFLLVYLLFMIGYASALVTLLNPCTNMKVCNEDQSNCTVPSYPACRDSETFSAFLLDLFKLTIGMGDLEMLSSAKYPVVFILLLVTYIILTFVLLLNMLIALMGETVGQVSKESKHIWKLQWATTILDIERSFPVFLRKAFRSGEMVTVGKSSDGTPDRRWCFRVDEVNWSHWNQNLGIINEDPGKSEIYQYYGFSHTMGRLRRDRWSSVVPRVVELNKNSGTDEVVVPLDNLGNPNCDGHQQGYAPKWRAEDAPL
T1 sequence (Q6RI86 whole entry): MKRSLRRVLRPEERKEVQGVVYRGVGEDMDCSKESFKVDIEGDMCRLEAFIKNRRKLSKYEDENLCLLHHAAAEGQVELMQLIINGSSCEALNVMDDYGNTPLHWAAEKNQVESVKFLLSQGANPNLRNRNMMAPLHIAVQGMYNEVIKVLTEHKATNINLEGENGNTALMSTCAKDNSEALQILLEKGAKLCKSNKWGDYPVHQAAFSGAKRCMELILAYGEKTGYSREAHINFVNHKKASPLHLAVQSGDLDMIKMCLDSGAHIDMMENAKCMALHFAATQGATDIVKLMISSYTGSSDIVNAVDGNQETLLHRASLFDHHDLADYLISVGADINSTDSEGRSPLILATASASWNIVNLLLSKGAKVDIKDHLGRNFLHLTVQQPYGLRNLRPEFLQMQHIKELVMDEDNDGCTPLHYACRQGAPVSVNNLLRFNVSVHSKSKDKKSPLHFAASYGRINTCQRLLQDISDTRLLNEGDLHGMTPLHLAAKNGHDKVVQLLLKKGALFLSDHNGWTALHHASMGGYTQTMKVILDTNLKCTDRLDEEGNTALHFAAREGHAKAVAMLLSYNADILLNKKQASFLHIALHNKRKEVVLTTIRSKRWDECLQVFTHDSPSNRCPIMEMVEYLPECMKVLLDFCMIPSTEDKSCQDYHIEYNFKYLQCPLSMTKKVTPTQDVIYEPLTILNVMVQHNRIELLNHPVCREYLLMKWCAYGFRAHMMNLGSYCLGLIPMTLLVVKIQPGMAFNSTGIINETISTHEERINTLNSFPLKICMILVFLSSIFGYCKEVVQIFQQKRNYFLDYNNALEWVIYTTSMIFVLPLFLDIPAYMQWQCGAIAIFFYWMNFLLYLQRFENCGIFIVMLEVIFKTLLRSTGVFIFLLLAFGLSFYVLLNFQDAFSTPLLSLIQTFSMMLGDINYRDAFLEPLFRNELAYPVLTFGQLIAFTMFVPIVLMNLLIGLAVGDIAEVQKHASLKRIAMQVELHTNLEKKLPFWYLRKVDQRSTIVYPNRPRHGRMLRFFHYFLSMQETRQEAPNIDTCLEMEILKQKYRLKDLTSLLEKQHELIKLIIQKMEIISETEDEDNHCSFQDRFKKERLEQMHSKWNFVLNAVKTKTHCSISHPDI
T6 sequence (Q8R455 whole entry): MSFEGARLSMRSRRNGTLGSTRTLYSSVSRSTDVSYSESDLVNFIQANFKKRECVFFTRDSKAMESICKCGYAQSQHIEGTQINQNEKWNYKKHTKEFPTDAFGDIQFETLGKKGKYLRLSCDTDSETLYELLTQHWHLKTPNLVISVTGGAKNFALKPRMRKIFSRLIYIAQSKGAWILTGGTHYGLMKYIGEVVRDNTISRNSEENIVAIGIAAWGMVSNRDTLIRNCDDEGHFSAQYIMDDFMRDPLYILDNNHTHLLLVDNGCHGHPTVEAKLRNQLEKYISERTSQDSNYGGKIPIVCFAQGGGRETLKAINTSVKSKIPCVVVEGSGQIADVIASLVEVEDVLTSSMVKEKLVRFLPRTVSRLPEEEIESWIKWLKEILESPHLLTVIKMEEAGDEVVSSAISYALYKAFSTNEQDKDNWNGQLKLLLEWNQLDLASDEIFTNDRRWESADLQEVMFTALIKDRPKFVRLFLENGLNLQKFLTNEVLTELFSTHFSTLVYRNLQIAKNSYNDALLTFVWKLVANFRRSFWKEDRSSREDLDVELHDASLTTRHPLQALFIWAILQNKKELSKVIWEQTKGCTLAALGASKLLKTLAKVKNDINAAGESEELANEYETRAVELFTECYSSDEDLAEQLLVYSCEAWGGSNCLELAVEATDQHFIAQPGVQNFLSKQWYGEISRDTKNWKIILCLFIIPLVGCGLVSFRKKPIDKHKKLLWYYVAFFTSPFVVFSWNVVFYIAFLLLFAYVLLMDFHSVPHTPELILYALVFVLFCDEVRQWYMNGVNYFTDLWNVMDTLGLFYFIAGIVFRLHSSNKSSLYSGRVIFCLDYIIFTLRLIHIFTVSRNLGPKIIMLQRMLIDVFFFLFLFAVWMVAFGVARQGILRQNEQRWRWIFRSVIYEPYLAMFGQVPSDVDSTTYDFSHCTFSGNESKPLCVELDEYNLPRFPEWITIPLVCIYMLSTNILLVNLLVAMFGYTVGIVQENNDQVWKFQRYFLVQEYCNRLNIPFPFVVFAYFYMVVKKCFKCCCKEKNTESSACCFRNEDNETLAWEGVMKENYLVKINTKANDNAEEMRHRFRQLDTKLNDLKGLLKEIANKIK

SMILES	TRPA1 Efficacy (% AITC 100 μM) [1] [%]	IC50 [2, 13] [µM]	IC50 [3, 14] [µM]	TRPV2 Efficacy (% Ionomycin 4 μM) [4] [%]	TRPV3 Efficacy (% Ionomycin 4 μM) [5, 15] [%]	IC50 [5, 16] [µM]	IC50 [2, 17] [µM]	IC50 [3, 18] [µM]	other results
C=C(C)[C@@H]1CCC(C)=C[C@H]1c1c(O)cc(C(C)(C)CCCCCC)cc1O [5a, DMH-CBD]	133.4 ± 5.3	> 100	> 100	<10	15.8 ± 0.4	> 30	–	–	–
CCCCCCC(C)(C)c1cc(O)c2c(c1)OC(C)(C)[C@@H]1CC=C(C)C[C@@H]21 [6a, DMH-Δ⁸-THC]	124.2 ± 4.0	–	–	<10	53.8 ± 1.6	–	> 100	> 100	–
CCCCCCC(C)(C)c1cc(O)c(C/C=C(\C)CCC=C(C)C)c(O)c1 [7a, DMH-CBG]	99.2 ± 4.5	> 100	–	65.3 ± 0.7	64.6 ± 4.8	> 30	–	–	–
CCCCCCC(C)(C)c1cc(O)c2c(c1)OC(C)(CCC=C(C)C)C=C2 (centres unmarked) [8a, DMH-CBC]	120.4 ± 2.8	> 100	> 100	76.1 ± 0.6	41.6 ± 1.8	> 50	–	–	IC50 ([1]; read-out: IC50 TRPA1, antagonist/desensitizing, vs AITC 100 μM): 0.37 µM; IC50 [6]: > 100 µM; EC50 ([5]; half-maximal increase in [Ca2+]i; read-out: TRPV3 Potency EC50; cited from earlier work): > 50 µM
CCCCCCC(C)(C)c1cc(O)c2c(c1)OC(C)(C)c1ccc(C)cc1-2 [9a, DMH-CBN]	132.3 ± 7.9	–	–	10.5 ± 0.02	20.9 ± 3.0	–	> 100	> 100	IC50 ([4]; read-out: IC50 TRPV2, vs CBD 2 μM): > 50 µM; EC50 ([4]; read-out: TRPV2 Potency EC50, half-maximal increase in [Ca2+]i): 0.25 ± 0.03 µM; EC50 ([5]; read-out: TRPV3 Potency EC50; half-maximal increase in [Ca2+]i; cited from earlier work): 41.4 ± 21.6 µM
CCCCCCC(C)(C)C1=CC2=C(C(=O)C1=O)c1cc(C)ccc1C(C)(C)O2 [9b]	–	–	–	–	–	–	–	–	IC50 ([7]; IC50 TRPA1, antagonist/desensitizing, added 5 min before AITC 100 μM): 15.1 ± 2.4 µM; TRPA1 Efficacy (% AITC 100 μM) ([7]; agonist effect as % of AITC 100 μM, HEK-293 rat TRPA1): 20.5%; IC50 [8]: > 100 µM; IC50 [9]: > 100 µM; IC50 [10]: > 100 µM; TRPV2 Efficacy (% Ionomycin 4 μM) ([11]; agonist effect as % of ionomycin 4 μM): 23.4 ± 3.7%; EC50 ([11]; half-maximal increase in [Ca2+]i, read-out: TRPV2 Potency EC50): 2 ± 1.6 µM; IC50 ([11]; vs CBD 2 μM): 5.2 ± 0.6 µM; TRPV3 Efficacy (% Ionomycin 4 μM) ([12]; agonist effect as % of ionomycin 4 μM, cells sensitized with 2-aminoethoxydiphenyl borate 100 μM): 32.5 ± 0.65%; IC50 ([12]; antagonist/desensitizing, vs Thymol 100 μM): 19.4 ± 3.5 µM; EC50 ([12]; half-maximal increase in [Ca2+]i, read-out: TRPV3 Potency EC50): 1.15 ± 0.15 µM
